From BindingDB's records for patent US11344546 (Recurium Ip Holding, 2022)
pKd: −log10 of the molar value.

Molecular target: Apoptosis regulator Bcl-2 (Homo sapiens, UniProt P10415)
Assay: Binding Assay
Description: Table 1: Binding to Bcl-2 proteins Bcl-2, and Bcl-XL was assessed using the Bcl2scan platform: T7 phage strains displaying BCL2 proteins were grown in parallel in 24-well blocks in an E. coli host derived from the BL21 strain. E. coli were grown to log-phase and infected with T7 phage from a frozen stock (multiplicity of infection=0.4) and incubated with shaking at 32° C. until lysis (90-150 minutes). The lysates were centrifuged (5,000×g) and filtered (0.2 μm) to remove cell debris. […] The liganded beads were blocked with excess biotin and washed with blocking buffer (SeaBlock (Pierce), 1% BSA, 0.05% Tween 20, 1 mM DTT) to remove unbound ligand and to reduce non-specific phage binding. […] Test compounds were prepared as 100× stocks in 100% DMSO. Kds were determined using an 11-point 3-fold compound dilution series with one DMSO control point. […] The compounds were then diluted directly into the assays such that the final concentration of DMSO was 0.9%. All reactions performed in polypropylene 384-well plates. Each was a final volume of 0.02 ml.

Apoptosis regulator Bcl-2, sequence (P10415 whole entry): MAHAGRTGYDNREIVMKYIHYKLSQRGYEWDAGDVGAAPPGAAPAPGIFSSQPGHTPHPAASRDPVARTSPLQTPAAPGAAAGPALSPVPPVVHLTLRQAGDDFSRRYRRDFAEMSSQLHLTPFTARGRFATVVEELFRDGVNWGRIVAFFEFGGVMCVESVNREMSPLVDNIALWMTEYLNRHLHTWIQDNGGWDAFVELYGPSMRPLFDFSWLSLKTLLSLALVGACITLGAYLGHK

CCC12CC(C3=C(CN4CCN(c5ccc(C(=O)NS(=O)(=O)c6ccc(OCC7(F)CCOCC7)c([N+](=O)O)c6)c(Oc6cnc7[nH]ccc7c6)c5)CC4)CCC(C)(C)C3)(C1)C2 [US11344546, Example 26]
pKd: > 8.00
